Reference: the supplement of paper PMC11208160

Assay: recombinant barcode read abundance after kanamycin selection (control-corrected) (log10(CPM+1)); higher = more efficient recombination; sequences stand for … in AGTGCAGAGAAAATCGGCCAGTTTTCTCTGCCTGCAGTCCGCATGCCGT…AGATTTATGCAGCGGACTGCCTTTCTCCCAAAGTGATAAACCGGACAGTATCATGGACCGGTTTTCCCGGTAATCCGTATTTGCAAGGTTGGTTTCACT; site = the 11-nt target
Summary of the method: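 Recombination efficiency was calculated from barcode counts at recombinant junctions, normalized to counts per million, averaged and corrected by the control. Each value is given as log10(CPM+1). The constructs were Gibson-cloned oligos (promoter, target, barcode, J23119-driven first 104 bridge RNA bases) in a vector with the remaining 73 bp and a T7-inducible recombinase, co-electroporated into E. coli with a donor plasmid and plated in duplicate on chloramphenicol/ampicillin LB agar (control) or chloramphenicol/ampicillin/kanamycin with 0.1 mM IPTG.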
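Note: IS621 recombinase and bridge RNA in Escherichia coli cells.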

Sequence	recombinant barcode read abundance (log10)
CACACGGCTTGGGTTCTAACCTGTTGCCT (site CACACCGCTAG)	0.246
CACACGGCTTGGGTTCTAACCTGTTGCCT (site CACACGGCTAG)	0.518
CACACTACTTGGGTTCTAACCTGTTGCTT (site CACACTACTAA)	0.0581
CACACTACTTGGGTTCTAACCTGTTGCTT (site TATACTACTAA)	0.101
CACAGCACTTGGGTTCTAACCTGTTGCCT (site CACAACACTAG)	0.065
CACAGCACTTGGGTTCTAACCTGTTGCCT (site CACACCACTAG)	0.00856
CACAGCACTTGGGTTCTAACCTGTTGCCT (site CACAGCACTAG)	1.44
CACAGCACTTGGGTTCTAACCTGTTGCCT (site CACATCACTAG)	0.0547
CACAGGCCTTGGGTTCTAACCTGTTGCAG (site CACAGGCCTCT)	1.98
CACAGGCCTTGGGTTCTAACCTGTTGCAG (site TGTTCAGCTAG)	0.0715
CACATACCTTGGGTTCTAACCTGTTGCAT (site CACATACCTAT)	1.87
CACATACCTTGGGTTCTAACCTGTTGCAT (site CACCTTCCTAT)	0.0683
CACATCACTTGGGTTCTAACCTGTTGCCT (site CACAACACTAG)	0.122
CACATCACTTGGGTTCTAACCTGTTGCCT (site CACACCACTAG)	0.225
CACATCACTTGGGTTCTAACCTGTTGCCT (site CACAGCACTAG)	0.0683
CACATCACTTGGGTTCTAACCTGTTGCCT (site CACATCACTAG)	0.704
CACATGCCTTGGGTTCTAACCTGTTGCTG (site CACATGCCTCA)	2
CACATGCCTTGGGTTCTAACCTGTTGCTG (site TTGTACACTGG)	0.0315
CACCAGACTTGGGTTCTAACCTGTTGCCA (site ACAATCTCTGA)	0.0296
CACCAGACTTGGGTTCTAACCTGTTGCCA (site CACCAGACTTG)	0.539
CACCCACCTTGGGTTCTAACCTGTTGCCT (site AACCCACCTAG)	0.0311
CACCCACCTTGGGTTCTAACCTGTTGCCT (site CACCCACCTAG)	1.66
CACCCACCTTGGGTTCTAACCTGTTGCCT (site GACCCACCTAG)	0.0974
CACCCACCTTGGGTTCTAACCTGTTGCCT (site TACCCACCTAG)	0.0304
CACCCTTCTTGGGTTCTAACCTGTTGCTC (site CACCCTTCTGA)	1.94
CACCCTTCTTGGGTTCTAACCTGTTGCTC (site TCTGGCCCTAG)	0.0488

Sequence	recombinant barcode read abundance (log10)
CACCGAGCTTGGGTTCTAACCTGTTGCTA (site CACCGAGCTTA)	0.528
CACCGAGCTTGGGTTCTAACCTGTTGCTA (site TTGACGACTCG)	0.177
CACCTTCCTTGGGTTCTAACCTGTTGCAT (site CACATACCTAT)	0.196
CACCTTCCTTGGGTTCTAACCTGTTGCAT (site CACCTTCCTAT)	1.77
CACGACCCTTGGGTTCTAACCTGTTGCCT (site CAAGACCCTAG)	0.0526
CACGACCCTTGGGTTCTAACCTGTTGCCT (site CACGACCCTAG)	2.05
CACGACCCTTGGGTTCTAACCTGTTGCCT (site CAGGACCCTAG)	0.0694
CACGACCCTTGGGTTCTAACCTGTTGCCT (site CATGACCCTAG)	0.16
CACGAGGCTTGGGTTCTAACCTGTTGCCT (site CACGAGACTAG)	0.707
CACGAGGCTTGGGTTCTAACCTGTTGCCT (site CACGAGCCTAG)	0.0831
CACGAGGCTTGGGTTCTAACCTGTTGCCT (site CACGAGGCTAG)	0.527
CACGAGGCTTGGGTTCTAACCTGTTGCCT (site CACGAGTCTAG)	0.322
CACGATGCTTGGGTTCTAACCTGTTGCCT (site CAAGATGCTAG)	0.437
CACGATGCTTGGGTTCTAACCTGTTGCCT (site CACGATGCTAG)	0.789
CACGATGCTTGGGTTCTAACCTGTTGCCT (site CAGGATGCTAG)	0.226
CACGATGCTTGGGTTCTAACCTGTTGCCT (site CATGATGCTAG)	0.351
CACGCTTCTTGGGTTCTAACCTGTTGCTA (site CACGCGTCTCA)	0.0477
CACGCTTCTTGGGTTCTAACCTGTTGCTA (site CACGCTTCTTA)	1.01
CACGGTCCTTGGGTTCTAACCTGTTGCCT (site CACGGTCCTAG)	2.13
CACGGTCCTTGGGTTCTAACCTGTTGCCT (site CTCGGTGCTAG)	0.0233
CACTCTCCTTGGGTTCTAACCTGTTGCAT (site CACTCTCCTAG)	0.11
CACTCTCCTTGGGTTCTAACCTGTTGCAT (site CACTCTCCTAT)	0.728
CACTGGTCTTGGGTTCTAACCTGTTGCCT (site CACTGATCTAG)	0.532
CACTGGTCTTGGGTTCTAACCTGTTGCCT (site CACTGCTCTAG)	0.0756
CACTGGTCTTGGGTTCTAACCTGTTGCCT (site CACTGGTCTAG)	1.12
CACTGGTCTTGGGTTCTAACCTGTTGCCT (site CACTGTTCTAG)	0.0874

Sequence	recombinant barcode read abundance (log10)
CACTTATCTTGGGTTCTAACCTGTTGCCT (site CACTTAACTAG)	0.149
CACTTATCTTGGGTTCTAACCTGTTGCCT (site CACTTACCTAG)	0.308
CACTTATCTTGGGTTCTAACCTGTTGCCT (site CACTTAGCTAG)	0.0751
CACTTATCTTGGGTTCTAACCTGTTGCCT (site CACTTATCTAG)	0.549
CACTTGCCTTGGGTTCTAACCTGTTGCCT (site CACTTGACTAG)	0.0347
CACTTGCCTTGGGTTCTAACCTGTTGCCT (site CACTTGCCTAG)	0.754
CACTTGCCTTGGGTTCTAACCTGTTGCCT (site CACTTGGCTAG)	0.0743
CACTTGCCTTGGGTTCTAACCTGTTGCCT (site CACTTGTCTAG)	0.614
CACTTGGCTTGGGTTCTAACCTGTTGCAG (site CACTGGGCTCT)	0.468
CACTTGGCTTGGGTTCTAACCTGTTGCAG (site CACTTGGCTCT)	0.706
CAGAAGCCTTGGGTTCTAACCTGTTGCCT (site AAGAAGCCTAG)	0.661
CAGAAGCCTTGGGTTCTAACCTGTTGCCT (site CAGAAGCCTAG)	1.65
CAGAAGCCTTGGGTTCTAACCTGTTGCCT (site GAGAAGCCTAG)	0.193
CAGAAGCCTTGGGTTCTAACCTGTTGCCT (site TAGAAGCCTAG)	0.0644
CAGACTTCTTGGGTTCTAACCTGTTGCCT (site CAGACTTCTAG)	0.473
CAGACTTCTTGGGTTCTAACCTGTTGCCT (site CCGACTTCTAG)	0.375
CAGACTTCTTGGGTTCTAACCTGTTGCCT (site CGGACTTCTAG)	0.039
CAGACTTCTTGGGTTCTAACCTGTTGCCT (site CTGACTTCTAG)	0.0642
CAGAGCCCTTGGGTTCTAACCTGTTGCTG (site CAGAGCCCTCA)	1.84
CAGAGCCCTTGGGTTCTAACCTGTTGCTG (site CTGAGCCCTCA)	0.0157
CAGAGGCCTTGGGTTCTAACCTGTTGCCT (site CAGAGGCCTAG)	0.224
CAGAGGCCTTGGGTTCTAACCTGTTGCCT (site CAGCGGCCTAG)	0.376
CAGAGGCCTTGGGTTCTAACCTGTTGCCT (site CAGGGGCCTAG)	0.149
CAGAGGCCTTGGGTTCTAACCTGTTGCCT (site CAGTGGCCTAG)	0
CAGAGGTCTTGGGTTCTAACCTGTTGCCT (site CAGAGCTCTAG)	0
